Like-named read-outs stand apart in the source and are kept apart here.
Assays:
[1] = tested on: E. coli; settings: E. coli cultured in liquid medium with sub-lethal dose of hydrogen peroxide (FIG. 2)
Procedure: Bacteria Imaging. The bacterial morphologies were observed under a laser scanning microscope using ZEN software. (Zeiss LSM 700). For sampling, 5˜10 ul of the bacteria was dropped on a glass slide and covered with a coverslip. After 20 min of drying in a fume hood, the bacteria were observed using a 100× objective lens. When the bacteria were cultured using a glass-bottom 96-well black plate (Ibidi #89626), the bacteria were fixed with cold acetone and blocked with 1% BSA in PBST for 30 min.
(§1) The serially diluted phage solution was plated to a solid medium containing sublethal dose of H2O2 by using a double agar overlay and the number of phages was counted.

[2] = tested on: E. coli
Description: In the present disclosure, the term “sublethal concentration” refers to a concentration that affects the growth of the bacteria but is not enough to cause bacterial death. The concentration may vary and be determined depending on the particular ROS, bacteria, and/or culture medium employed. In one embodiment of the present disclosure, the sublethal concentration is defined as a minimum concentration at which the growth rate of bacteria remains constant until 1 hr after the treatment with ROS, which begin to decrease 2 hrs after the treatment with ROS.
H2O2 was used as ROS, which was prepared by 1:2 serial dilution.

[3] = tested on: bacteriophage T4 on E. coli; settings: solid medium, sub-lethal dose of hydrogen peroxide
Procedure: Phage plaque size measurement. Phage plaques were allowed to form on a bacterial lawn and the size measured using a digital caliper.
as §1

[4] = tested on: bacteriophage T4 in E. coli K12 (MG1655)
Procedure: E. coli K12 (MG1655) was cultured overnight. The overnight culture was inoculated at 1:100 (vol:vol) ratio to a 10 ml LB broth in a 50 ml tube and incubated for 1 hr to prepare a fresh culture. When the E. coli K12 strain reached an OD600 of 0.3, H2O2 was added at a final concentration of 4.5 mM and incubated further for 1 hr until OD600 of 0.5˜0.7.
Then T4 was added at a multiplicity of infection (MOI) of 0.001 and incubated further for 5 min at 37° C. in a shaking incubator to allow for phage adsorption. Then the culture was centrifuged at 12,000 rmp for 5 min and the supernatant was removed. Ten ml of fresh LB broth was added to the pellet and resuspended. When the resuspension was completed, which was set to 0 min, the resuspend culture was incubated at a 37° Crotary incubator at 0 min, and 500 μl of the culture was taken at 5 minute intervals. Each of the culture was then plated by a double agar overlay and the number of phages were counted.

[5] = 4.5 mM H2O2, liquid medium, T4 at MOI 0.001 (FIG. 3)

## OO [H2O2, hydrogen peroxide]
[1]
  bacterial morphology (filamentation, bacterial length): bacterial filamentation was clearly observed
[1]; listed as hydrogen peroxide
  bacterial morphology (filamentation, bacterial length): Increase in bacterial length due to bacterial filamentation
[2]; liquid medium (FIG. 1)
  sublethal concentration: 4.5 mM
[2]; solid medium
  sublethal concentration: 0.2 mM
[3]
  increase of plaque size (diameter) compared to the control: at least 5 times
[4]; [5]
  delay of the start of the burst compared to the control: 5 min
  increase of the size of the burst compared to the control: 6 times
[4]; sublethal dose of H2O2
  phage production: increase in the phage production was clearly observed

— US20200347362A1, “COMPOSITION AND METHOD FOR INCREASING PRODUCTION OF BACTERIOPHAGE USING REACTIVE OXYGEN SPECIES” (Hankuk University of Foreign Studies Research & Business …, priority 2017, published 2020)
